Source: US20100240612A1, “Prenylated Bisphosphonates as Anti-tuberculosis Agents” (priority 2009, published 2010)

Assays:
[1] = tested on: Mycobacterium Smegmatis (ATCC 607); test: Test B: Inhibition of Growth of the Bacterium M. Smegmatis; type: cell-based; conditions: grown in the presence of drug for 2 days, absorbance at 540 nm or CFU; result in words, data only in FIG. 3, versus Isoniazid
Procedure: Mycobacterium Smegmatis (ATCC 607) was obtained from American Type Culture Collection and cultured in 7H9 broth (Sigma) containing ADC (Sigma), 0.5% glycerol, and 0.05% Tween-80. Bacteria were grown to log phase and then diluted, aliquoted, and grown in the presence of indicated drugs for 2 days. Growth was measured as a function of optical absorbance at 540 nm using a spectrophotometer. Alternatively, aliquots of liquid cultures were spread onto agar containing plates, which were then grown for 2 days, after which the number of colony forming units (CFU) were counted and normalized per mL.

[2] = target: T1, mycobacterial polyprenyl synthase (RV2361c) (Mycobacterium tuberculosis, UniProt P9WFF7); test: Test A: Inhibition of Mycobacterial Polyprenyl Synthase (RV2361c); type: biochemical; conditions: result in words, data only in FIG. 1/FIG. 2
T1 sequence (P9WFF7 1-296): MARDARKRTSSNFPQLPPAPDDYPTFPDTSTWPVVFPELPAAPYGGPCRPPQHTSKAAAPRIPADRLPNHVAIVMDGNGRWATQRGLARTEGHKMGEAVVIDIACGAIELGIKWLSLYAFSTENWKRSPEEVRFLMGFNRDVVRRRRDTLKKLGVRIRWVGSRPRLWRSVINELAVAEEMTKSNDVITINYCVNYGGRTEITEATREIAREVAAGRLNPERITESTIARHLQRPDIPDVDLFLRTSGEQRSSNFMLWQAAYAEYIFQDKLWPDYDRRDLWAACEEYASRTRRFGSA

COC(=O)c1ccccc1NC/C(C)=C/CC/C(C)=C/CC(P(=O)(OCOC(=O)C(C)(C)C)OCOC(=O)C(C)(C)C)P(=O)(OCOC(=O)C(C)(C)C)OCOC(=O)C(C)(C)C [compound 24]
inhibition of growth of the bacterium M. Smegmatis [1]: inhibition of growth

CC(C)=CCc1ccc(CC(P(=O)([O-])[O-])P(=O)([O-])[O-])cc1.[Na+].[Na+].[Na+].[Na+] [compound 13, p-Prenyl-phenethylidene bisphosphonic acid tetra sodium salt]
inhibition of purified mycobacterial polyprenyl synthase (RV2361c) [2]: inhibition
